Assay type in all cases: binding
The target in test [1] is T1, CCL28(4-108) (Homo sapiens, UniProt Q9NRJ3).
T1 construct: Uniformly ^15N-labeled CCL28(1-108) and CCL28(4-108) proteins were expressed using a previously described SUMO fusion construct; Smt (SUMO) fusion tag (N, cleaved yes); made in house; host or cells: E. coli BL21(DE3)
T1 sequence (Q9NRJ3 23-127): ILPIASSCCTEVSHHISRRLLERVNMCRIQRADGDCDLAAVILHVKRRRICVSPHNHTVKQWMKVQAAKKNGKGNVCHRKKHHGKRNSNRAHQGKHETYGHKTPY
The test is described as follows: Single-fragment 1H-15N HSQC titration, chemical shift mapping. To be noted: 6 mM fragment, 50 μM CCL28(4-108).

In test [2] the target is T1, CCL28(4-108). Put plainly: Dual-fragment NMR titration. Particulars: one fragment titrated 0–3 mM into 3 mM of the other, 50 μM CCL28.
Another test deals with T2, CCL28(1-108) (Homo sapiens, UniProt Q9NRJ3).
T2 construct: Uniformly ^15N-labeled CCL28(1-108) and CCL28(4-108) proteins were expressed using a previously described SUMO fusion construct; Smt (SUMO) fusion tag (N, cleaved yes); made in house; host or cells: E. coli BL21(DE3)
T2 sequence (Q9NRJ3 20-127): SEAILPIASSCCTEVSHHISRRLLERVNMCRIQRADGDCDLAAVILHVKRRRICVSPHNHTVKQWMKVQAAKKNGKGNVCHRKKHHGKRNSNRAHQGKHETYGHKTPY
Put plainly: 1H-15N HSQC NMR titration of repurchased fragment hits (hit validation). To be noted: for Kd: 50 μM CCL28(1-108), fragment 0–6 mM, HSQC at 25 °C, estimated by nonlinear fitting, read-out: Kd (fitting of titration-derived chemical shift perturbation data). As to the method:
NMR samples for fragment screening and titration experiments were prepared using a liquid handling robot designed for and dedicated to sample mixing and loading of NMR sample tubes as previously described, except that 1.7 mm sample tubes were used with sample volumes of 60 μL. All ^1H,^15N HSQC spectra were acquired at 25 °C and 600 MHz on a Bruker Avance III HD NMR spectrometer equipped with a 1.7 mm TCI CryoProbe and SampleJet sample handling robot. NMR data processing was performed in an automated manner, as previously described. Custom Python scripts were used to automate the movement of NMRPipe processing scripts to each experiment directory, run the NMRPipe processing scripts, transfer transformed spectra to a processed data directory, compute HSQC difference spectra, generate HSQC overlay and HSQC difference contour plot files for each sample, perform principal component analysis calculations and K-means cluster analysis on all spectra acquired in each round of fragment screening.
Fragment screening was conducted against 50 μM ^15N-CCL28(1-108) in an iterative multiplexed manner as previously described, except that each chemical fragment was present at a concentration of 500 μM instead of 1mM. A collection of 2,678 fragments comprised of the Core 1000 (Maybridge), Zenobia 1 (Zenobia), L5700 (Targetmol), and 3D Shape Diverse (Enamine) libraries were arranged into 12-plex groups for the first iteration. A consistent buffer was used across all NMR samples (50 mM dMES, 150 mM NaCl, 3% v/v DMSO, 0.02% w/v sodium azide, 5% v/v deuterium oxide) for 12-plex, 3-plex, and single compound screening rounds. Principal component analysis (PCA) and difference intensity analysis (DIA) comparisons of a reference (DMSO only) spectrum with each screening spectrum were used to identify potential hits, which were then verified by manual inspection of HSQC overlays and HSQC difference spectra, as previously described. Candidate hits were repurchased and subjected to ^1H-^15N HSQC titration with 50 μM CCL28(1-108) at concentrations ranging from 0–6 mM. Repurchased compound identities were confirmed via 1D ^1H NMR, and purity was determined to be at least 90% via natural abundance ^1H-^13C HSQC. For a subset of validated hits, CCL28 binding was measured in combination with a second fragment, each of which was titrated to a maximum concentration of 3 mM.
Because hits were identified in the primary screen from 2D NMR spectra acquired at a single fragment concentration, evaluating each candidate in terms of CCL28 binding affinity and specificity was essential. HSQC titrations up to a final concentration of 6 mM were performed using repurchased material for each candidate hit. Using the same chemical shift mapping approach employed for sTyr binding (Fig. 1B & C), titration-derived chemical shift perturbation data was used to ascertain and visualize the residues most affected by the addition of each compound. Fragment binding affinities were estimated by nonlinear fitting as previously described. […] While Kd value estimates ranged from ~1 mM to > 10 mM (Fig. 3), the other 13 fragments reproduced HSQC perturbations observed in the primary NMR screen, and PCA clustered them in two groups distinct from the non-hits. […] Four fragments mainly affected residues […], R21, E25, and the side chain of Q69 located in a cleft between the N-loop and α-helix. Another eight fragments largely perturbed residues in the sY binding cleft (Fig. 1C), including I53, which is analogous to V49 of CXCL12, a critical residue in facilitating binding interactions with sY21 of its receptor CXCR4 [18].

Each structure is given as a SMILES string.

Results on 13 compounds are retold here after PMC10339762, “Fragment-based drug discovery of small molecule ligands for the human chemokine CCL28” (SLAS discovery : advancing life sciences R & D, 2023).

For the compound `O=C(O)c1ccc(-c2ccccc2)s1` [CC10501], the “Residues with largest / strong fragment-induced peak shifts” value at CCL28(4-108) [1] was “I53, S20, and R21, CC10501 additionally yielded strong peak shifts for E25, Q69, and M66”. For the same compound, the “Simultaneous binding of fragment pair” value at CCL28(4-108) [2] is “can occupy adjoining subsites within the same cleft on the CCL28 surface”. The Kd at CCL28(1-108) was 6.6 mM.

On to `O=C(O)c1ccc(-c2cccs2)s1` [CC146001], for which the Kd at CCL28(1-108) is 3.2 mM.

For `Cc1csc(C(C#N)C(=O)c2ccccc2F)n1` (centres unmarked) [E2C02.03 C11.09C10], the Kd at CCL28(1-108) was over 10 mM.

For the compound `Cc1cc(Cl)ccc1S(=O)(=O)Nc1ccon1` [E2C04.04 C11.12C09], the Kd at CCL28(1-108) is over 10 mM.

In the case of `OCCCCn1cnc2cc(Cl)c(Cl)cc21` [SPB07625], the “Simultaneous binding of fragment pair” value at CCL28(4-108) [2] is recorded as “can occupy adjoining subsites within the same cleft on the CCL28 surface”. Also, the Kd on CCL28(1-108) is 0.85 mM.

As for `O=C(O)c1cc2cc(C(F)(F)F)ccc2[nH]1` [TA01.A04.02A03], on CCL28(1-108), the Kd is over 10 mM.

With `Sc1nc2cc(Cl)ccc2o1` [ZT0010], the Kd at CCL28(1-108) was 1.2 mM.

For `O=C(O)c1cc2cc(F)ccc2[nH]1` [ZT0073], at CCL28(1-108), the Kd was over 10 mM.

`O=c1cc(O)c2ccccc2o1` [ZT0262]: the Kd on CCL28(1-108) is over 10 mM.

As for `Cc1cccc(C(=O)O)c1O` [ZT0733], the Kd on CCL28(1-108) was over 10 mM.

For `O=C(O)/C=C/c1ccccc1` [ZT0754], the Kd on CCL28(1-108) was over 10 mM.

As to `O=C(O)c1ccc2c3c(cccc13)CC2` [ZT0784], the Kd on CCL28(1-108) is 2.3 mM. Besides, the “Binding site by chemical shift mapping” value on CCL28(1-108) (HSQC titration up to 6 mM, two potential sites (N-loop/α-helix cleft; sY binding cleft)) is given as “perturbed residues located in both sites”.

With `O=C(O)c1cc2ccccc2[nH]1` [ZT1669], the Kd on CCL28(1-108) was over 10 mM.
